Measured values reported in the SangsterLogP compilation.

Compound | logP
O=C(O)CCC(=O)OC1N=C(c2ccccc2)c2cc(Cl)ccc2NC1=O (stereo not drawn) | 1.5
CCN(CC)CCN1C(=O)C(O)N=C(c2ccccc2Cl)c2cc(Cl)ccc21 (stereo not drawn) | 1.76
CC(=O)OCCCN1C(=O)C(OC(C)=O)N=C(c2ccccc2)c2cc(Cl)ccc21 (stereo not drawn) | 3.08
O=C1C(O)N=C(c2ccccc2)c2cc(Cl)ccc2N1CCCO (stereo not drawn) | 1.68
O=C1C(O)N=C(c2ccccc2Cl)c2cc(Cl)ccc2N1CCO (stereo not drawn) | 2.16
CN1C(=O)C(O)N=C(c2ccccc2F)c2cc(Cl)ccc21 (stereo not drawn) | 2.09
CN1C(=O)C(O)N=C(c2ccccc2Cl)c2cc(Cl)ccc21 (stereo not drawn) | 2.5
O=C(O)CCC(=O)OCCN1C(=O)C[N+]([O-])=C(c2ccccc2)c2cc(Cl)ccc21 | 0.36
O=C1Nc2ccc(Cl)cc2C(c2ccccc2F)=NC1O (stereo not drawn) | 1.81
CC(=O)OC1N=C(c2ccccc2)c2cc(Cl)ccc2N(CCO)C1=O (stereo not drawn) | 2.45
O=C1C(O)N=C(c2ccccc2F)c2cc(Cl)ccc2N1CCO (stereo not drawn) | 1.52
CCN(CC)CCN1C(=O)C(O)N=C(c2ccccc2F)c2cc(Cl)ccc21 (stereo not drawn) | 1.89
CCCC(CCC)C(=O)OC1N=C(c2ccccc2)c2cc(Cl)ccc2NC1=O (stereo not drawn) | 4.94
O=C1C(O)N=C(c2ccccc2)c2cc([N+](=O)[O-])ccc2N1CCO (stereo not drawn) | 0.55
CCOC1N=C(c2ccccc2)c2cc(Cl)ccc2N(CCCl)C1=O (stereo not drawn) | 3.53
O=C1C[N+]([O-])=C(c2ccccc2)c2cc(Cl)ccc2N1CCO | 0.82
CCOC1N=C(c2ccccc2)c2cc(Cl)ccc2N(CCO)C1=O (stereo not drawn) | 2.44
O=C1C(O)N=C(c2ccccc2)c2cc(Cl)ccc2N1CCO (stereo not drawn) | 1.53
CC(=O)OCCN1C(=O)C(OC(C)=O)N=C(c2ccccc2)c2cc(Cl)ccc21 (stereo not drawn) | 2.74
CNC(=O)N1C(=O)CN=C(c2ccccc2)c2cc([N+](=O)[O-])ccc21 | 1.76
CCN(CC)CCN1C(=O)C(O)N=C(c2ccccc2)c2cc(Cl)ccc21 (stereo not drawn) | 1.7
COc1cc(C(=O)OC2N=C(c3ccccc3)c3cc(Cl)ccc3NC2=O)cc(OC)c1OC (stereo not drawn) | 3.75
O=C1CN=C(c2ccccc2)c2cc(Cl)ccc2N1CC(F)(F)F | 3.97
